Measurements published in patent publication US20250177448A1, “NEW USE OF PEG-PHOSPHOLIPID MOLECULES” (ICOAT MEDICAL AB, priority 2022, published 2025).
“Also recorded” adds a separate entry of the source.

Columns and labels:
[1] = system: CD4; experiment: Antibody binding to surface antigen on PEG-phospholipid coated CCRF-CEM, flow cytometry; type: cell-based, human; settings: 2 mg/ml in PBS, 30 minutes room temperature; antigen 15 nm
Protocol: (§1) CCRF-CEM were collected from cell culture medium (1×10^6 cells) and washed with PBS by centrifugation (250×g, 3 min, RT). A cell pellet of CCRF-CEM (1×10^6 cells) was incubated with PEG-phospholipid (50 μl, 2 mg/ml in PBS), 5 kDa unconjugated PEG (50 μl, 2 mg/ml in PBS) or PBS (50 μl, as control) for 30 min at RT with gentle mixing. After washing with PBS by centrifugation (200×g, 4° C., 3 min) twice, FITC-labeled three antibodies, FITC-anti-human CD52 from BioLegend (400 μg/ml, 40 μl), FITC-anti-human CD4 from BioLegend (200 μg/ml, 40 μl), or Alexa488-labelled anti-human CD8 from GeneTex (200 μg/ml, 40 μl, Alexa488 was labelled by the labelling kit) or PBS (40 μl) was mixed with the treated CCRF-CEM for 15 min at RT. As a control, CCRF-CEM was treated with 2 mg/ml PEG (5 kDa, in PBS) solution and additionally incubated with FITC- or Alexa488-labeled antibodies. After washing with PBS by centrifugation (200×g, 4° C., 3 min), CCRF-CEM were re-suspended with PBS (1 ml) for flow cytometry measurements. Samples were analyzed on a flow cytometer (BD LSR II, BD Biosciences). Post analysis processing was carried out in FlowJo (BD).
(§2) CCRF-CEM cells were incubated with PEG-phospholipid (2 mg/ml in PBS), free PEG (5 kDa, equivalent molecular weight used in the synthesis of PEG-phospholipid) or PBS (vehicle control) for 30 minutes at room temperature. After removing excess PEG-phospholipid, FITC-labelled antibodies directed towards surface antigens of different sizes, CD52, CD4, and CD8, were added. Samples were analyzed on a flow cytometer. […] The size of CD8 is estimated to be around 5-10 nm based on the crystal structure of the non-membranous part. Lastly, CD4-antibodies were not blocked by PEG-phospholipid, as expected, given that the size of the antigen (15 nm) is larger than the size of PEG-phospholipid (estimated to be around 6 nm) (FIG. 3A).

[2] = system: CD52; experiment: as above; type: cell-based, human; settings: 2 mg/ml in PBS, 30 minutes room temperature; antigen around 1 nm
Protocol: as §1, §2

[3] = system: CD8; experiment: as above; type: cell-based, human; settings: 2 mg/ml in PBS, 30 minutes room temperature; antigen around 5-10 nm
Protocol: as §1, §2

[4] = system: porcine kidney transplant, ischemia reperfusion injury; experiment: Porcine clinical-like allogeneic survival transplantation model (CLSM); type: in vivo, pig; settings: not shown
Text: During and after surgery, systemic blood was collected for up to 4 days and analyzed for creatinine, sodium, potassium and phosphate (Section for Clinical Chemistry, Uppsala University Hospital).
These studies were approved by the Ethics Committee for Animal Experimentation, Uppsala, Sweden, Dnr C123/14. For each of these studies (SM and CLSM) five donor pigs and 10 recipient pigs of both sexes were used. All pigs were certified SPF pigs (Yorkshire×Hampshire) and bred at Lövsta University herd, SLU, Sweden. At arrival to SLU the pigs were 8 weeks old.
For the SM study, the pigs were selected after typing for Swine Leucocyte Antigen (SLA) class 1 in the following manner: the donor pigs were obtained from two litters and not related to any of the recipients. The recipient pigs were siblings, matched in pairs according to SLA class 1 (see below). For the CLSM study, all recipient pigs were siblings and not related to the donors, but these the pigs were not SLA-typed.
CLSM study: In this study, the retrieval of the kidney resembled the standard operative procedure of human organ procurement. Each donor was randomized to either PEG-phospholipid or HTK treatment. […]
The recipient pigs underwent allogeneic single kidney transplantation. […] By using a urine stick the sample was analyzed for proteinurea and hematuria. […]

[5] = system: Concanavalin A; settings: HUVEC, 0.5 mg/ml, without plasma exposure
Protocol: HUVEC cells were cultured with endothelial cell culture medium with supplements (Promocell) in cell culture flasks (Thermofisher Scientific) and Petri dishes (NUNC). The cells were detached using trypsin EDTA buffer for flowcytometry analysis (BD accuri C6 Serial no. 5173). The cells were rinsed with PBS (10 mL) by centrifugation (120×g, 4° C., 3 min) once and fresh medium was added to the detached cells.
In addition, HUVEC cells were incubated with PEG-phospholipid (0.5 mg/ml), with 10 mM free PEG (5 kDa), or PBS (control) at RT for 45 min followed by washing with PBS, and incubation in human serum with EDTA-plasma as control, both diluted 1:50 in PBS, for 30 min at 37° C. After washing, lectin pathway recognition molecules collectin-11 (CL-11), and mannan binding lectin (MBL), were detected using the FITC-labelled and isotype control antibodies as given in Table 1. […] In addition, FITC-labelled concavalin A (a lectin of broad specificity) was incubated with coated and native HUVECs (without prior exposure to plasma) at a concentration of 50 g/ml.
After incubation with detecting antibodies, the cells were washed with PBS. All samples were analyzed on an Accuri C6 flow cytometer, unstained cells were used to gate the endothelial cell population. 10,000 events were recorded and additional controls in the form of isotype control and unstained control were ran in parallel. […]

[6] = system: porcine kidney transplant, ischemia reperfusion injury
Protocol: TAT was measured in both human and porcine plasma using an anti-human thrombin monoclonal antibody was used for capturing and an HRP-coupled anti-human antithrombin (AT) antibody was used for detection (Enzyme Research Laboratories, South Bend, IN, USA).
In addition, TNF, IL-1b, IL-6 and tissue factor (TF) were quantified in plasma by immunoassays using a GyroLab workstation (Gyros, Uppsala, Sweden), and the presence of these compounds, as well as IFNγ in biopsies (below) were verified by PCR.
Paraffin sections of porcine kidney tissue were cut (3-5 μm), deparaffinized in xylene and rehydrated with a graded series of ethanol and distilled water. For IHC staining a heat-induced antigen retrieval was performed by boiling the sections in sodium citric buffer (pH 6), the sections were blocked with 10% normal goat serum (Jackson Immunoresearch) before primary antibody incubation: anti-MAC (abcam ab66768); anti-C3b alpha chain (Bioss bs-4873R); anti-C4d (abcam ab64157), anti-C5aR (Acris AP06509PU-N), anti-HO1 (abcam ab52947), anti-CSE (abnova H00001491-M01), anti-Nitrotyrosine (Merck Millipore AB5411), anti-NOS2 (Santa Cruz sc-651), detection was performed by DAKO Real
Detection System alkaline phosphatase red (Dako). The sections were counterstained with Mayer's hematoxylin (Sigma #51275). Control staining was done with a nonspecific rabbit IgG (Dako #X0936). The slides were visualized using a Zeiss Axio Imager A1 microscope with a ×10 objective (100-fold magnification). Intensity of staining was quantified on multiple randomly selected 800,000 μm^2 sections using the AxioVision 4.8 software (Zeiss). Data are presented as mean densitometric sum red.

[7] = ANSM biopsies, electron microscopy, vs matched individual controls
[8] = ANSM, 1, 60 and 360 min, treated vs non-treated kidneys
[9] = ANSM, 6 h observation, treated vs untreated kidneys
[10] = ANSM, treated vs untreated kidneys

N-(methylpolyoxyethylene oxycarbonyl)-1,2-dipalmitoyl-sn-glycero-3-phosphoethanolamine [PEG-phospholipid]
binding of CD4-antibodies [1]: not blocked; also recorded: no significant masking | binding of antibodies directed towards CD52 [2]: entirely blocked; also recorded: near complete inhibition; also recorded: effective masking | binding capacity of CD8-antibodies [3]: reduced but not entirely blocked; also recorded: partial masking | complement and coagulation markers (C3a, sC5b-9, TAT, C3b) ([4]; displaying lower values): confirmed these results | cytokines / systemic inflammation [4]: confirmed these results | binding of Concanavalin A [5]: substantially reduced | glomerular NETosis (renal NET deposition) [6, 7]: marked decrease | tubular NETosis (renal NET deposition) [6, 7]: marked decrease | HO-1 staining in biopsies [6, 8]: No difference was found | INOS staining in biopsies [6, 8]: No difference was found | nitrotyrosine staining in biopsies [6, 8]: No difference was found | C3a in renal vein blood [6, 9]: substantially lower | FXIla-C1INH in renal vein blood [6, 9]: substantially lower | TAT in renal vein blood [6, 9]: substantially lower | sC5b-9 in renal vein blood [6, 9]: substantially lower | IL-1β mRNA expression in kidney biopsies ([6]; ANSM, RT-PCR, vs controls): lower | IL-6 mRNA expression in kidney biopsies ([6]; ANSM, RT-PCR, vs controls): lower | TF mRNA expression in kidney biopsies ([6]; ANSM, RT-PCR, vs controls): lower | TNF mRNA expression in kidney biopsies ([6]; ANSM, RT-PCR, vs controls): lower | deposition of NETs in all locations (glomerular, tubular, vascular) ([6]; ANSM, n=6): highly significant reduction | binding of C3b in kidney biopsies [6, 10]: significantly lower binding | binding of C4d in kidney biopsies [6, 10]: tendency of a lower binding | IL-1β plasma concentration in the renal vein ([6]; ANSM, vs controls): lower | IL-6 plasma concentration in the renal vein ([6]; ANSM, vs controls): lower | TF plasma concentration in the renal vein ([6]; ANSM, vs controls): lower | TNF plasma concentration in the renal vein ([6]; ANSM, vs controls): lower | time within which fluorescence migrated from the glomeruli to the tubular system ([6]; pig, in vivo): ≤ 6 h
